# Measured values reported in patent US7897543B2, “Spiroketal-substituted cyclic ketoenols” (Bayer CropScience AG, priority 2005, dated 2011).
# Marks after values point to notes of the source that are not given here.
# Test system: Phaedon cochleariae
# Assay: Example N: Phaedon Test (spray treatment)
# Type: in vivo
# Details: application rate 500 g/ha
# Procedure: [table] To produce a suitable preparation of active compound, 1 part by weight of active compound is mixed with the stated amounts of solvents and emulsifier, and the concentrate is diluted with emulsifier-containing water to the desired concentration. Discs of Chinese cabbage (Brassica pekinensis) are sprayed with a preparation of active compound of the desired concentration and, after drying, populated with larvae of the mustard beetle (Phaedon cochleariae).
row,Compound,activity in % [%]
1,Cc1cc(C)c(C2=C(O)C3(CCC4(CC3)OC(C)C(C)O4)NC2=O)c(C)c1 (mixture of isomers) [Ex. I-1-a-10],100
2,Cc1cc(Cl)cc(C)c1C1=C(O)C2(CCC3(CC2)OC(C)C(C)O3)NC1=O (mixture of isomers) [Ex. I-1-a-30],100
3,Cc1cc(Cl)cc(C)c1C1=C(O)C2(CCC3(CC2)OCC(C)O3)NC1=O (mixture of isomers) [Ex. I-1-a-31],100
4,Cc1cc(Br)cc(C)c1C1=C(O)C2(CCC3(CC2)OCC(C)CO3)NC1=O (mixture of isomers) [Ex. I-1-a-32],100
5,Cc1cc(Cl)cc(C)c1C1=C(O)C2(CCC3(CC2)OCC(C)CO3)NC1=O (mixture of isomers) [Ex. I-1-a-34],100
6,Cc1cc(Cl)cc(C)c1C1=C(O)C2(CCC3(CC2)OC(C)CC(C)O3)NC1=O (mixture of isomers) [Ex. I-1-a-38],100
7,CCc1cc(Br)cc(C)c1C1=C(O)C2(CCC3(CC2)OC(C)C(C)O3)NC1=O (mixture of isomers) [Ex. I-1-a-45],100
8,Cc1cc(Br)cc(C)c1C1=C(O)C2(CCC3(CC2)OC(C)C(C)O3)NC1=O (mixture of isomers) [Ex. I-1-a-46],100
9,Cc1cc(Br)cc(C)c1C1=C(O)C2(CCC3(CC2)OCC(C)O3)NC1=O (mixture of isomers) [Ex. I-1-a-47],100
10,Cc1ccc(-c2ccc(Cl)cc2)c(C)c1C1=C(O)C2(CCC3(CC2)OCC(C)O3)NC1=O (mixture of isomers) [Ex. I-1-a-51],100
11,Cc1ccc(-c2ccc(Cl)cc2)cc1C1=C(O)C2(CCC3(CC2)OCC(C)O3)NC1=O (mixture of isomers) [Ex. I-1-a-52],100
12,CCc1cc(Br)cc(C)c1C1=C(O)C2(CCC3(CC2)OCC(C)O3)NC1=O (mixture of isomers) [Ex. I-1-a-53],100
13,Cc1ccc(-c2ccc(Cl)cc2)cc1C1=C(O)C2(CCC3(CC2)OC(C)C(C)O3)NC1=O (mixture of isomers) [Ex. I-1-a-54],100
14,Cc1cc(Br)cc(C)c1C1=C(O)C2(CCC3(CC2)OC(C)CC(C)O3)NC1=O (mixture of isomers) [Ex. I-1-a-56],100
15,CCc1cc(Br)cc(C)c1C1=C(O)C2(CCC3(CC2)OC(C)CC(C)O3)NC1=O (mixture of isomers) [Ex. I-1-a-63],100
16,CC1COC2(CCC3(CC2)NC(=O)C(c2cc(-c4ccc(Cl)cc4)ccc2Cl)=C3O)OC1 (mixture of isomers) [Ex. I-1-a-65],100
17,Cc1ccc(-c2ccc(Cl)cc2)cc1C1=C(O)C2(CCC3(CC2)OCCC(C)O3)NC1=O (mixture of isomers) [Ex. I-1-a-66],100
18,COCC1COC2(CCCC3(C2)NC(=O)C(c2c(C)cc(C)cc2C)=C3O)O1 (mixture of isomers) [Ex. I-1-a-71],100

row,Compound,activity in % [%]
1,CCOC(=O)OC1=C(c2cc(C)ccc2C)C(=O)NC12CCC1(CC2)OCC(C)O1 (mixture of isomers) [Ex. I-1-c-19],100
2,"CCCC1COC2(CCC3(CC2)NC(=O)C(c2c(C)cc(C)cc2C)=C3O)O1 (single isomer, unassigned) [Ex. I-1-a-9]",100
3,CCCC1COC2(CCC3(CC2)NC(=O)C(c2c(C)cc(C)cc2C)=C3O)O1 (stereo not drawn) [Ex. I-1-a-8],100
4,Cc1ccc(-c2ccc(Cl)cc2)cc1C1=C(O)C2(CCC3(CC2)OCCCO3)NC1=O [Ex. I-1-a-16],100
5,Cc1cc(Cl)cc(C)c1C1=C(O)C2(CCC3(CC2)OCC(C)(C)CO3)NC1=O [Ex. I-1-a-20],100
6,COc1cc(C)cc(C)c1C1=C(O)C2(CCC3(CC2)OCCCO3)NC1=O [Ex. I-1-a-24],100
7,Cc1ccc(-c2ccc(Cl)cc2)cc1C1=C(O)C2(CCC3(CC2)OCCO3)NC1=O [Ex. I-1-a-27],100
8,Cc1cc(Br)cc(C)c1C1=C(O)C2(CCC3(CC2)OCC(C)(C)CO3)NC1=O [Ex. I-1-a-33],100
9,CCc1cc(Br)cc(C)c1C1=C(O)C2(CCC3(CC2)OCCO3)NC1=O [Ex. I-1-a-39],100
10,COc1cc(C)cc(C)c1C1=C(O)C2(CCC3(CC2)OCCO3)NC1=O [Ex. I-1-a-43],100
11,O=C1NC2(CCC3(CC2)OCCO3)C(O)=C1c1cc(-c2ccc(Cl)cc2)ccc1Cl [Ex. I-1-a-49],100
12,Cc1ccc(C)c(C2=C(O)C3(CCC4(CC3)OCC(C)(C)CO4)NC2=O)c1 [Ex. I-1-a-61],100
13,CC1(C)COC2(CCC3(CC2)NC(=O)C(c2cc(-c4ccc(Cl)cc4)ccc2Cl)=C3O)OC1 [Ex. I-1-a-64],100
14,Cc1ccc(-c2ccc(Cl)cc2)cc1C1=C(O)C2(CCC3(CC2)OCC(C)(C)CO3)NC1=O [Ex. I-1-a-67],100
15,Cc1ccc(C)c(C2=C(O)C3(CCC4(CC3)OCCO4)NC2=O)c1 [Ex. I-1-a-68],100
16,CCOC(=O)OC1=C(c2cc(-c3ccc(Cl)cc3)ccc2C)C(=O)NC12CCC1(CC2)OCCCO1 [Ex. I-1-c-31],100
17,CCOC(=O)OC1=C(c2c(C)cc(C)cc2OC)C(=O)NC12CCC1(CC2)OCCCO1 [Ex. I-1-c-34],100

# Test system: Test plants
# Assay: Example U: Pre-emergence Test
# Type: in vivo
# Details: crop plant; greenhouse, 250 g of a.i./ha, after three weeks; sub-table 3
# Procedure: To produce a suitable preparation of active compound, 1 part by weight of active compound is mixed with the stated amount of solvent, the stated amount of emulsifier is added and the concentrate is diluted with water to the desired concentration.
# Seeds of the test plants are sown in normal soil. After about 24 hours, the soil is sprayed with the preparation of active compound such that the particular amounts of active compound desired are applied per unit area. The concentration of the spray liquor is chosen such that the particular amounts of active compound desired are applied in 1000 l of water/ha.
# After three weeks, the degree of damage to the plants is rated in % damage in comparison to the development of the untreated control.
# The figures denote: • 0%=no effect (like untreated control) • 100%=total destruction
row,Compound,"damage, Sugar beet [%]"
1,Cc1cc(Cl)cc(C)c1C1=C(O)C2(CCC3(CC2)OCCCO3)NC1=O [Ex. I-1-a-14],0

# Same assay, conditions: greenhouse, 250 g of a.i./ha, after three weeks; sub-table 2
Compound,"damage, Alopecurus [%]","damage, Avena fatua [%]","damage, Echinochloa [%]","damage, Setaria [%]","damage, Sinapis [%]"
Cc1cc(Cl)cc(Cl)c1C1=C(O)C2(CCC3(CC2)OCCCO3)NC1=O [Ex. I-1-a-11],90,70,80,90,
CCOC(=O)OC1=C(c2c(C)cc(Cl)cc2Cl)C(=O)NC12CCC1(CC2)OCCO1 [Ex. I-1-c-4],80,,90,99,80

# Same assay, conditions: greenhouse, 250 g of a.i./ha, after three weeks; sub-table 3
Compound,"damage, Alopecurus [%]","damage, Avena fatua [%]","damage, Echinochloa [%]","damage, Setaria [%]"
Cc1cc(Cl)cc(C)c1C1=C(O)C2(CCC3(CC2)OCCCO3)NC1=O [Ex. I-1-a-14],95,80,80,90

# Same assay, conditions: greenhouse, 250 g of a.i./ha, after three weeks; sub-table 4
Compound,"damage, Alopecurus [%]","damage, Echinochloa [%]","damage, Setaria [%]"
Cc1cc(Cl)cc(Cl)c1C1=C(O)C2(CCC3(CC2)OCCCO3)NC1=O [Ex. I-1-a-11],80,80,100

# Test system: Echinocloa crus-galli
# Assay: Example V 2: Herbicidal Post-Emergence Action
# Type: in vivo
# Details: greenhouse, 320 g of a.i./ha, about 3 weeks
# Procedure: (§1) Seeds of monocotyledonous and dicotyledonous weed and crop plants are placed into sandy loam in wood fibre pots, covered with soil and cultivated in a greenhouse under good growth conditions. 2-3 weeks after sowing, the test plants are treated at the one-leaf stage. The test compounds, formulated as wettable powders (WP), are then, in various dosages with a water application rate of 600 l/ha (converted), with 0.2% of wetting agent added, sprayed onto the green parts of the plants. After the test plants have been kept in the greenhouse under optimum growth conditions for about 3 weeks, the effect of the preparations is rated visually in comparison to untreated controls (herbicidal effect in percent (%): 100% effect=the plants have died, 0% effect=like control plants).
row,Compound,"herbicidal effect, Echinochloa [%]"
1,Cc1cc(Cl)cc(C)c1C1=C(OC(=O)C(C)C)C2(CCC3(CC2)OCC(CCl)O3)OC1=O (stereo not drawn) [Ex. I-2-b-3],80

# Test system: Lolium multiflorum
# Assay: Example V 2: Herbicidal Post-Emergence Action
# Type: in vivo
# Details: greenhouse, 320 g of a.i./ha, about 3 weeks
# Procedure: as §1
row,Compound,"herbicidal effect, Lolium [%]"
1,Cc1cc(Br)cc(C)c1C1=C(O)C2(CCC3(CC2)OCCO3)OC1=O [Ex. I-2-a-5],100
2,Cc1cc(Cl)cc(C)c1C1=C(OC(=O)C(C)C)C2(CCC3(CC2)OCC(CCl)O3)OC1=O (stereo not drawn) [Ex. I-2-b-3],100

# Test system: Setaria viridis
# Assay: Example V 2: Herbicidal Post-Emergence Action
# Type: in vivo
# Details: greenhouse, 320 g of a.i./ha, about 3 weeks
# Procedure: as §1
row,Compound,"herbicidal effect, Setaria [%]"
1,Cc1cc(Br)cc(C)c1C1=C(O)C2(CCC3(CC2)OCCO3)OC1=O [Ex. I-2-a-5],70
2,Cc1cc(Cl)cc(C)c1C1=C(OC(=O)C(C)C)C2(CCC3(CC2)OCC(CCl)O3)OC1=O (stereo not drawn) [Ex. I-2-b-3],90

# Test system: monocotyledonous and dicotyledonous weed and crop plants
# Assay: Example V 2: Herbicidal Post-Emergence Action
# Type: in vivo
# Details: greenhouse, 320 g of a.i./ha, about 3 weeks
# Procedure: as §1
Compound,"herbicidal effect, Amaranthus [%]","herbicidal effect, Stellaria [%]"
Cc1cc(Br)cc(C)c1C1=C(O)C2(CCC3(CC2)OCCO3)OC1=O [Ex. I-2-a-5],70,60

# Test system: not listed separately
# Assay: log P determination by HPLC/LC-MS retention times, calibration with alkan-2-ones
# Type: physicochemical
# Details: HPLC on reversed-phase column (C 18), 43° C., EEC Directive 79/831 Annex V.A8
# Procedure: In the acidic range, the determination is carried out at pH 2.3 using 0.1% aqueous phosphoric acid and acetonitrile as mobile phases; linear gradient from 10% acetonitrile to 95% acetonitrile.
# The determination by LC-MS in the acidic range is carried out at pH 2.7 using 0.1% aqueous formic acid and acetonitrile (comprises 0.1% formic acid) as mobile phases; linear gradient from 10% acetonitrile to 95% acetonitrile.
# The determination by LC-MS in the neutral range is carried out at pH 7.8 using 0.001 molar aqueous ammonium bicarbonate solution and acetonitrile as mobile phases; linear gradient from 10% acetonitrile to 95% acetonitrile.
# Calibration is carried out using unbranched alkan-2-ones (having 3 to 16 carbon atoms) with known log P values (determination of the log P values by the retention times using linear interpolation between two successive alkanones).
row,Compound,log P
1,COC(=O)C1(NC(=O)Cc2c(C)cc(C)cc2C)CCC2(CC1)OCCO2 [II-2],log P 2.68
2,COC(=O)C1(NC(=O)Cc2c(C)cc(Br)cc2C)CCC2(CC1)OCCO2 [II-7],wax log P 2.81*
3,CCc1cc(C)cc(C)c1CC(=O)NC1(C(=O)OC)CCC2(CC1)OCCO2 [II-8],wax log P 2.95*
4,CCc1cc(Br)cc(C)c1CC(=O)NC1(C(=O)OC)CCC2(CC1)OCCO2 [II-9],wax log P 3.19*
5,COC(=O)C1(NC(=O)Cc2cc(C)c(C)cc2C)CCC2(CC1)OCCCO2 [II-17],log P 2.59*
6,COC(=O)C1(NC(=O)Cc2c(C)cc(C)cc2OC)CCC2(CC1)OCCCO2 [II-24],log P 2.49*
7,COC(=O)C1(NC(=O)Cc2cc(-c3ccc(Cl)cc3)ccc2C)CCC2(CC1)OCCO2 [II-31],log P 3.47*
8,CCc1cc(C)cc(CC)c1CC(=O)NC1(C(=O)OC)CCC2(CC1)OCCO2 [II-32],log P 3.28*
9,CCc1cc(C)cc(Br)c1CC(=O)NC1(C(=O)OC)CCC2(CC1)OCCO2 [II-36],log P 3.04*

# Same assay, conditions: HPLC/LC-MS retention times; printed in the Isomer column of the (I-1-a) table
row,Compound,chromatographic logP
1,CCCC1COC2(CCC3(CC2)NC(=O)C(c2c(C)cc(C)cc2C)=C3O)O1 (stereo not drawn) [Ex. I-1-a-8],2.73

# Same assay, conditions: printed in the Isomer column of the (I-1-a) table
row,Compound,logP
1,"CCCC1COC2(CCC3(CC2)NC(=O)C(c2c(C)cc(C)cc2C)=C3O)O1 (single isomer, unassigned) [Ex. I-1-a-9]",2.78
